This note sets out measurements from US6512006B1, “HIV protease inhibitors” (Warner-Lambert Company, priority 1999, dated 2003).

Molecules are shown by their SMILES. pEC50, pKi: −log10 of the molar value.

Data set [1] has as its target T1, Recombinant HIV-1 protease (Human immunodeficiency virus type 1 group M subtype B, UniProt P04585).
T1 construct: Recombinant HIV-1 protease (>96% purity); purchased Bachem Bioscience, Inc. (King of Prussia, Pa.)
Kind of data set: HIV Protease Assay (Ki). Type of data set: biochemical. To be noted: Inhibition of HIV Protease Ki, pH 6.2, 37° C., 40 μM substrate III. As to the method: Recombinant HIV-1 protease (>96% purity) and HIV protease substrate III (the undecapeptide H-His-Lys-Ala-Arg-Val-Leu-Nph-Glu-Ala-Nle-Ser-NH2, 97% purity) were purchased from Bachem Bioscience, Inc. (King of Prussia, Pa.).
The methods employed follow the procedures of Tummino, et al., Archives of Biochemistry and Biophysics, 1995;316:523). […] (total volume, […]). […] The final inhibitor concentrations used were 0 (0.1, 0.2, in some experiments), 0.5, 1, 2, 5, 10, 20, 50, and 100 μM. The solution was mixed, incubated for 5 minutes and the reaction quenched by addition of trifluoracetic acid, 2% final. The (leu-p-nitro-phe) bond of the substrate is cleaved by the enzyme and substrate and products separated by reverse-phase HPLC (high pressure liquid chromatography). Absorbance was measured at 220 nm, peak areas determined, and percentage conversion to product used to calculate percentage control (=[% conversion (+inhibitor)/% conversion (−inhibitor)]×100).
Ki means inhibitory constant; it approximately the equilibrium binding constant for the binding of the inhibitor to the free enzyme.

Data set [2] deals with HIV infected lymphocyte derived CEM cells. Nature of the data set: Cellular Infection Assay, XTT cytopathic procedure in CEM cells (antiviral efficacy). To be noted: Human immunodeficiency virus 1, CCRF-CEM, read-out: Antiviral Efficacy EC50, CEM cells, 50% protection against HIV cytopathic effects. Type of data set: cell-based. As to the method:
Compounds were tested in lymphocyte derived CEM cells using the XTT cytopathic procedures and were performed at Southern Research Institute (Buckheit, et al., Antiviral Res., 1993;21:247; see also Weislow, et al., J. Nat. Cancer Inst., 1989;81:577). Compound concentrations were 0.32, 1, 3.2, 10, 32, and 100 μM. The EC50 represents the concentration of agent, which reduces HIV cytopathic effects 50% relative to untreated control. Cellular toxicity of the agents are estimated from the TC50 which represents the concentration of the agent which inhibits 50% of the viability of uninfected cells.
EC50 indicates the concentration of the drug which provide 50% protection against HIV.
For orientation: Formazan colour is commonly taken as a measure of viable cells.

A short description of data set [3]: Cellular toxicity in uninfected CEM cells (XTT). Type of data set: cell-based. To be noted: human, uninfected CEM cells (lymphocyte derived), cytotoxicity in 50% of uninfected CEM cells; read-out: TC50 (the source's name). As to the method:
Compound concentrations were 0.32, 1, 3.2, 10, 32, and 100 μM.

The compound `CCCN(C1=C(O)CC(CCc2ccc(O)cc2)(C(C)C)OC1=O)c1cccc(NS(=O)(=O)c2cccs2)c1` (centres unmarked) gave a melting point of 85 to 87 °C.

For the compound `CCCN(C1=C(O)CC(CCc2ccc(O)cc2)(C2CCCC2)OC1=O)c1cccc(NS(=O)(=O)c2ccc(C(F)(F)F)cn2)c1` (centres unmarked), the melting point fell in the range of 104 to 106 °C.

Turning to `CCCCN(C1=C(O)CC(CCc2cccc(O)c2)(C2CCCC2)OC1=O)c1ccccc1` (centres unmarked), the melting point fell in the range of 64 to 66 °C.

In turn, `CCCN(C1=C(O)CC(CCc2ccc(N)cc2)(C(C)C)OC1=O)c1cccc(NS(=O)(=O)c2ccc(C(F)(F)F)cn2)c1` (centres unmarked) had a melting point of 170 to 172 °C.

For the compound `CC(C)C1(CCc2ccc(O)cc2)CC(O)=C(N(c2ccccc2)c2ccccc2)C(=O)O1` (centres unmarked), the melting point was 83 to 85 °C.

In turn, `CCCN(C1=C(O)CC(CCc2ccc(O)cc2)(C(C)C)OC1=O)c1cccc(C(=O)OC)c1` (centres unmarked) showed a melting point of 96 to 98 °C.

With `CCCN(C1=C(O)CC(CCc2ccc(O)cc2)(C(C)C)OC1=O)c1cc(Cl)cc(Cl)c1` (centres unmarked), the melting point fell in the range of 86 to 88 °C.

In turn, `CCCN(C1=C(O)CC(CCc2ccccc2)(C(C)C)OC1=O)c1ccccc1` (centres unmarked) had a melting point of 160 to 162 °C.

Regarding `CCCN(C1=C(O)CC(CCc2ccsc2)(C(C)C)OC1=O)c1ccccc1` (centres unmarked), the melting point was 53 to 55 °C.

For `CCCN(C1=C(O)CC(CCc2ccc(O)cc2)(C2CCCC2)OC1=O)c1ccccc1` (centres unmarked), the melting point turned out to be 95 °C.

Consider `CCN(C1=C(O)CC(CCc2ccc(O)cc2)(C(C)C)OC1=O)c1ccccc1` (centres unmarked), for which the melting point is 63 to 65 °C.

In turn, `O=C1OC(CCc2cccc(O)c2)(C2CCCC2)CC(O)=C1N(c1ccccc1)c1ccccc1` (centres unmarked) registered a melting point of 90 to 92 °C.

For the compound `CC(C)C1(CCc2ccc(O)cc2)CC(O)=C(N(c2ccccc2)C2CCCCC2)C(=O)O1` (centres unmarked), the melting point lay within 104 to 106 °C.

For the compound `CC(C)C1(CCc2ccc(O)cc2)CC(O)=C(N(c2ccccc2)C2CCCC2)C(=O)O1` (centres unmarked), the melting point is 83 to 85 °C.

Consider `COc1ccc(N(C2=C(O)CC(CCc3ccc(O)cc3)(C(C)C)OC2=O)c2ccccc2)cc1` (centres unmarked), for which the melting point is 95 to 96 °C.

Turning to `CCCN(C1=C(O)CC(C)(CCc2ccc(O)cc2)OC1=O)c1ccccc1` (centres unmarked), the melting point was in the range of 179 to 181 °C.

With `CC(C)C1(CCc2ccc(O)cc2)CC(O)=C(N(c2ccccc2)c2cccc(O)c2)C(=O)O1` (centres unmarked), the melting point is 95 to 97 °C.

`CCCCC1(CCc2ccc(O)cc2)CC(O)=C(N(CCC)c2ccccc2)C(=O)O1` (centres unmarked): the melting point is 58 to 60 °C.

In the case of `CCCN(C1=C(O)CC(CCc2ccc(O)cc2)(C2CC2)OC1=O)c1ccccc1` (centres unmarked), the melting point lay within 74 to 75 °C.

`CC(C)N(C1=C(O)CC(CCc2ccc(O)cc2)(C(C)C)OC1=O)c1ccccc1` (centres unmarked) showed a melting point of 75 to 77 °C.

For `CC(C)C1(CCc2ccc(O)cc2)CC(O)=C(N(CCO)c2ccccc2)C(=O)O1` (centres unmarked), the melting point was in the range of 85 to 86 °C.

For the compound `CCCN(C1=C(O)CC(CCc2ccc3c(c2)OCO3)(C(C)C)OC1=O)c1ccccc1` (centres unmarked), the melting point was in the range of 93 to 95 °C.

For the compound `CC(C)CCN(C1=C(O)CC(CCc2ccc(O)cc2)(C(C)C)OC1=O)c1ccccc1` (centres unmarked), the melting point was in the range of 70 to 72 °C.

`CC(C)C1(CCc2ccc(O)cc2)CC(O)=C(N(c2ccccc2)C2CC2)C(=O)O1` (centres unmarked): the melting point lay within 102 to 104 °C.

With `CCCN(C1=C(O)CC(CCc2ccc(O)cc2)(C(C)C)OC1=O)c1cccc2c(O)cccc12` (centres unmarked), the melting point was 93 to 96 °C.

Compound `CCN(C1=C(O)CC(CCc2ccc(O)cc2)(C(C)C)OC1=O)c1ccc2ccccc2c1` (centres unmarked) displayed a melting point of 97 to 99 °C.

The compound `CCN(C1=C(O)CC(CCc2ccc(O)cc2)(C(C)C)OC1=O)c1cccc2ccccc12` (centres unmarked) showed a melting point of 86 to 88 °C.

The compound `CC(C)C1(CCc2ccc(O)cc2)CC(O)=C(N(Cc2ccccc2)c2ccccc2)C(=O)O1` (centres unmarked) came in with a melting point of 75 to 77 °C.

`CCCCN(C1=C(O)CC(CCc2ccc(O)cc2)(C(C)C)OC1=O)c1ccccc1` (centres unmarked) [15]: the melting point was in the range of 69 to 71 °C.

In the case of `CCCN(C1=C(O)CC(CCc2ccc(O)cc2)(C(C)C)OC1=O)c1cccc(CO)c1` (centres unmarked) [19], the melting point was 61 to 63 °C.

Consider `CCCN(C1=C(O)CC(CCc2ccc(O)cc2)(C(C)C)OC1=O)c1cccc(CO)c1` (centres unmarked) [32], for which the melting point lay within 71 to 73 °C.

Turning to `CCCN(C1=C(O)CC(CCc2ccccc2)(C(C)C)OC1=O)c1cccc(NS(=O)(=O)c2ccc(C(F)(F)F)cn2)c1` (centres unmarked) [Example 1, 5-Trifluoromethyl-pyridine-2-sulfonic acid {3-[(4-hydroxy-6-isopropyl-2-oxo-6-phenethyl-5,6-dihydro-2H-pyran-3-yl)-propyl-amino]-phenyl}-amide], the pKi in data set [1] is 10.54. The pEC50 in data set [2] was 6.15. The CC50 in data set [3] worked out at 63000 nM.

With `CCN(C1=C(O)CC(CCc2ccccc2)(C(C)C)OC1=O)c1cccc(NS(=O)(=O)c2ccc(C(F)(F)F)cn2)c1` (centres unmarked) [Example 3, 5-Trifluoromethyl-pyridine-2-sulfonic acid {3-[ethyl-(4-hydroxy-6-isopropyl-2-oxo-6-phenethyl-5,6-dihydro-2H-pyran-3-yl)-amino]-phenyl}-amide], the pKi in data set [1] was 9.02. In addition, in data set [2], the pEC50 was 5.96. In addition, the CC50 in data set [3] amounted to 66000 nM.

Turning to `CCCN(C1=C(O)CC(CCc2ccc(O)cc2)(C(C)C)OC1=O)c1cccc(NS(=O)(=O)c2ccc(C(F)(F)F)cn2)c1` (centres unmarked) [Example 4, 5-Trifluoromethyl-pyridine-2-sulfonic acid [3-({4-hydroxy-6-[2-(4-hydroxy-phenyl)-ethyl]-6-isopropyl-2-oxo-5,6-dihydro-2H-pyran-3-yl}-propyl-amino)-phenyl]-amide], the pKi in data set [1] is 11.00. The pEC50 in data set [2] was 5.96. Besides, the CC50 in data set [3] was determined as 84000 nM.

As for `CCCC1(CCc2ccc(O)cc2)CC(O)=C(N(CC)c2cccc(NS(=O)(=O)c3ccc(C(F)(F)F)cn3)c2)C(=O)O1` (centres unmarked) [Example 5, 5-Trifluoromethyl-pyridine-2-sulfonic acid [3-(ethyl-{4-hydroxy-6-[2-(4-hydroxy-phenyl)-ethyl]-2-oxo-6-propyl-5,6-dihydro-2H-pyran-3-yl}-amino)-phenyl]-amide], in data set [1], the pKi was 9.77. For the same compound, the pEC50 in data set [2] was 5.89. Besides, the CC50 in data set [3] amounted to 113000 nM.

As for `CCN(C1=C(O)CC(CCc2ccc(O)cc2)(C(C)C)OC1=O)c1cccc(NS(=O)(=O)c2ccc(C(F)(F)F)cn2)c1` (centres unmarked) [Example 6, 5-Trifluoromethyl-pyridine-2-sulfonic acid [3-(ethyl-{4-hydroxy-6-[2-(4-hydroxy-phenyl)-ethyl]-6-isopropyl-2-oxo-5,6-dihydro-2H-pyran-3-yl}-amino)-phenyl]-amide], the pKi in data set [1] was 9.36. In addition, the pEC50 in data set [2] was 5.89. In addition, the CC50 in data set [3] came out at 133000 nM.

With `CCCN(C1=C(O)CC(CCc2ccc(O)cc2)(C(C)C)OC1=O)c1ccccc1` (centres unmarked) [Example 7, 4-Hydroxy-6-[2-(4-hydroxy-phenyl)-ethyl]-6-isopropyl-3-(phenyl-propyl-amino)-5,6-dihydro-pyran-2-one], the melting point fell in the range of 171 to 173 °C. Also, the pKi in data set [1] is 9.89. Also, in data set [2], the pEC50 is 5.89. Besides, the CC50 in data set [3] turned out to be 200000 nM.

In turn, `CCCN(C1=C(O)CC(CCc2cccc(O)c2)(C2CCCC2)OC1=O)c1ccccc1` (centres unmarked) [Example 8, 6-Cyclopentyl-4-hydroxy-6-[2-(3-hydroxy-phenyl)-ethyl]-3-(phenyl-propyl-amino)-5,6-dihydro-pyran-2-one] showed a melting point of 74 to 76 °C. In addition, the pKi in data set [1] was 9.46. The pEC50 in data set [2] was 5.89. In data set [3], the CC50 amounted to 67000 nM.

`CCCN(C1=C(O)CC(CCc2ccccc2CO)(C(C)C)OC1=O)c1ccccc1` (centres unmarked) [Example 9, 4-Hydroxy-6-[2-(2-hydroxymethyl-phenyl)-ethyl]-6-isopropyl-3-(phenyl-propyl-amino)-5,6-dihydro-pyran-2-one] gave a melting point of 58 to 60 °C. Moreover, the pKi in data set [1] is 8.70. In data set [2], the pEC50 is 5.85. Besides, the CC50 in data set [3] turned out to be 101000 nM.

Take `CCCCN(C1=C(O)CC(CCc2ccc(O)cc2)(C(C)C)OC1=O)c1ccccc1` (centres unmarked) [Example 13, 3-(Butyl-phenyl-amino)-4-hydroxy-6-[2-(4-hydroxy-phenyl)-ethyl]-6-isopropyl-5,6-dihydro-pyran-2-one]: the melting point is 196 to 198 °C. Moreover, the pKi in data set [1] was 9.70. In data set [2], the pEC50 is 5.82. Also, in data set [3], the CC50 was found to be 156000 nM.

By melting point is commonly meant the temperature, or range, at which the solid turns liquid. A word on the pKi: it is −log10 of the Ki, conventionally taken in molar units. By pEC50 is commonly meant the negative decadic logarithm of the EC50, by convention in mol/L.
